What was measured:
[1] = molecular target: T1, E123G, R331K, K402R, L404H (Zea mays, UniProt P55241+Q947C0, E123G/R331K/K402R/L404H); experiment: Activation constant from initial rates with varied 3-PGA (0-1 mM) at 2 mM ATP and 2 mM G-1-P, pH 7.4, 15 mM MgCl2, fitted to V = Vmin + Vmax*X/(Ka + X).; format: biochemical
T1 construct: BT2 quadruple variant with wild type SH2, E. coli, purified
Description: (§1) All reactions were developed as above.

E123G = molecular target: T2, E123G (Zea mays, UniProt P55241+Q947C0, E123G); experiment: as above; format: biochemical
T2 construct: BT2 variant with wild type SH2, E. coli, purified
T2 sequence (Q947C0 entry or part of it E123G, one chain of several): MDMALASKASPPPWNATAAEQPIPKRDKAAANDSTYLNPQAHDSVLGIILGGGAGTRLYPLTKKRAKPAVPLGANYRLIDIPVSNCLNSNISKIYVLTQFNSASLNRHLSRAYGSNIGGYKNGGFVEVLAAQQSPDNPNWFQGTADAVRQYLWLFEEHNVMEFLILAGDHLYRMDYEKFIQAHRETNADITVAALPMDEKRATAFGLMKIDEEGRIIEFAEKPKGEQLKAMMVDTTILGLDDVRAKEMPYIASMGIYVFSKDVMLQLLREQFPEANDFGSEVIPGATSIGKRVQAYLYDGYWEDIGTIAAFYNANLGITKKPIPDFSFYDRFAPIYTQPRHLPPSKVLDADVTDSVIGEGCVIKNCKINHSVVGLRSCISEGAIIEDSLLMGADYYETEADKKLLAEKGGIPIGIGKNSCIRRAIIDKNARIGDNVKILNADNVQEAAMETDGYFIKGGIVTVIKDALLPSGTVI
Description: as §1

D242H = molecular target: T3, D242H (Zea mays, UniProt P55241+Q947C0, D242H); experiment: as above; format: biochemical
T3 construct: BT2 variant with wild type SH2, E. coli, purified
T3 sequence (Q947C0 1-475 D242H, one chain of several): as the sequence (Q947C0 entry or part of it E123G, one chain of several) above, with G123E, D242H counted along it
Description: as §1

E123G, R331K, L404H [2] = molecular target: T4, E123G, R331K, L404H (Zea mays, UniProt P55241+Q947C0, E123G/R331K/L404H); experiment: as above; format: biochemical
T4 construct: BT2 variant with wild type SH2, E. coli, purified
T4 sequence (Q947C0 1-475 E123G/R331K/L404H, one chain of several): as the sequence (Q947C0 entry or part of it E123G, one chain of several) above, with R331K, L404H counted along it
Description: as §1

wt (SH2-WT/BT2-WT) = wt (SH2-WT/BT2-WT) (Zea mays, UniProt P55241+Q947C0)
Chain of wt (SH2-WT/BT2-WT) (Q947C0 1-475, one chain of several): as the sequence (Q947C0 entry or part of it E123G, one chain of several) above, with G123E counted along it
Experimental: All reactions were developed as above. The activation constant was fitted to the following equation, V = Vmin + Vmax^∗X/(Ka + X), since several enzymes had appreciable activity in the absence of activator. Here, Vmin is the velocity in the absence of activator and Vmax is the change in activity from Vmin to the total velocity, X is the activator concentration, Ka is the activation constant. All linear regressions were carried out using the software program Prism (GraphPad, San Diego, CA, United States).

L404K = molecular target: T5, L404K (Zea mays, UniProt P55241+Q947C0, L404K); experiment: Initial-rate assay (PPi formation coupled to NADH oxidation) with varied ATP (0.05-3.0 mM) at 2.0 mM G-1-P, 2.5 mM 3-PGA, 15 mM MgCl2, 50 mM HEPES pH 7.4, hyperbolic fit.; format: biochemical; conditions: read-out: KM ATP
T5 construct: BT2 variant with wild type SH2, E. coli, purified
T5 sequence (Q947C0 1-475 L404K, one chain of several): as the sequence (Q947C0 entry or part of it E123G, one chain of several) above, with G123E, L404K counted along it
Description: (§2) All saturation plots were hyperbolic. No cooperative effects were seen.

R331P = molecular target: T6, R331P (Zea mays, UniProt P55241+Q947C0, R331P); experiment: as above; format: biochemical; conditions: read-out: KM ATP
T6 construct: BT2 variant with wild type SH2, E. coli, purified
T6 sequence (Q947C0 1-475 R331P, one chain of several): as the sequence (Q947C0 entry or part of it E123G, one chain of several) above, with G123E, R331P counted along it
Description: as §2

R331K = molecular target: T7, R331K (Zea mays, UniProt P55241+Q947C0, R331K); experiment: as above; format: biochemical; conditions: read-out: KM ATP
T7 construct: BT2 variant with wild type SH2, E. coli, purified
T7 sequence (Q947C0 1-475 R331K, one chain of several): as the sequence (Q947C0 entry or part of it E123G, one chain of several) above, with G123E, R331K counted along it
Description: as §2

[3] = molecular target: T1, E123G, R331K, K402R, L404H; experiment: as above; format: biochemical; conditions: read-out: KM ATP
Description: as §2

L404E = molecular target: T8, L404E (Zea mays, UniProt P55241+Q947C0, L404E); experiment: as above; format: biochemical; conditions: read-out: KM ATP
T8 construct: BT2 variant with wild type SH2, E. coli, purified
T8 sequence (Q947C0 1-475 L404E, one chain of several): as the sequence (Q947C0 entry or part of it E123G, one chain of several) above, with G123E, L404E counted along it
Description: as §2

E123G, R331K = molecular target: T9, E123G, R331K (Zea mays, UniProt P55241+Q947C0, E123G/R331K); experiment: as above; format: biochemical; conditions: read-out: KM ATP
T9 construct: BT2 variant with wild type SH2, E. coli, purified
T9 sequence (Q947C0 1-475 E123G/R331K, one chain of several): as the sequence (Q947C0 entry or part of it E123G, one chain of several) above, with R331K counted along it
Description: as §2

[4] = molecular target: T10, E123G, R331K, K402R (BT2-BF) (Zea mays, UniProt P55241+Q947C0, E123G/R331K/K402R); experiment: as above; format: biochemical; conditions: read-out: KM ATP
T10 construct: BT2-BF with wild type SH2 (SH2-WT/BT2-BF), E. coli, purified
T10 sequence (Q947C0 1-475 E123G/R331K/K402R): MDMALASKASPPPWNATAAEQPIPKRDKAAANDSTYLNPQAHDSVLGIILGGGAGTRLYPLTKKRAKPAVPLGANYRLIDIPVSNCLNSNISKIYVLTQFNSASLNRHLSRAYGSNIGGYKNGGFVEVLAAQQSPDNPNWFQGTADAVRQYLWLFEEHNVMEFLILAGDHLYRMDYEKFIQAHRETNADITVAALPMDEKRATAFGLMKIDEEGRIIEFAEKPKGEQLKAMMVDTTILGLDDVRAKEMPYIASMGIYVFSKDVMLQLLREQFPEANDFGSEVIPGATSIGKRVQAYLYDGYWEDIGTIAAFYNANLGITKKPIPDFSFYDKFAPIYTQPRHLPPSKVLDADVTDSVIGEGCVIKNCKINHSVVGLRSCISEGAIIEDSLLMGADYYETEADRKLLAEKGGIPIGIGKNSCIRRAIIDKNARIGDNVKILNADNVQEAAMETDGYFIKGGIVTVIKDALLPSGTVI
T10 sequence (P55241 46-516): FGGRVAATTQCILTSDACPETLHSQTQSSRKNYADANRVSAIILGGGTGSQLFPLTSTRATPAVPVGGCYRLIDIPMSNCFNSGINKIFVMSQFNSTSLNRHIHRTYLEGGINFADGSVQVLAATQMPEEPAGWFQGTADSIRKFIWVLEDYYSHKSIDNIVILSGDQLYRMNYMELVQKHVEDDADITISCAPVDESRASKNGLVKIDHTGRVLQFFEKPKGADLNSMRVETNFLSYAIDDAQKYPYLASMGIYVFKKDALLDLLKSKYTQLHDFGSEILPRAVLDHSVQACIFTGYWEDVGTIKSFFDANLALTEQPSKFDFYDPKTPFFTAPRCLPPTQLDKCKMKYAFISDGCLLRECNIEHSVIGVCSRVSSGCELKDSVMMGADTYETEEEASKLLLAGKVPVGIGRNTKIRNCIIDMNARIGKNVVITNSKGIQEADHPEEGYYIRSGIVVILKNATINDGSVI
Description: as §2

E123G, R331K, L404H [5] = molecular target: T4, E123G, R331K, L404H; experiment: as above; format: biochemical; conditions: read-out: KM ATP
Description: as §2

L404H = molecular target: T11, L404H (Zea mays, UniProt P55241+Q947C0, L404H); experiment: as above; format: biochemical; conditions: read-out: KM ATP
T11 construct: BT2 variant with wild type SH2, E. coli, purified
T11 sequence (Q947C0 1-475 L404H, one chain of several): as the sequence (Q947C0 entry or part of it E123G, one chain of several) above, with G123E, L404H counted along it
Description: as §2

T1 sequence (Q947C0 1-475 E123G/R331K/K402R/L404H, one chain of several): as the sequence (Q947C0 entry or part of it E123G, one chain of several) above, with R331K, K402R, L404H counted along it

Row | Structure (SMILES) | 3-PGA Ka (activation constant) [1] | 3-PGA Ka (activation constant) (E123G) | 3-PGA Ka (activation constant) (D242H) | 3-PGA Ka (activation constant) (E123G, R331K, L404H [2]) | 3-PGA Ka (activation constant) (wt (SH2-WT/BT2-WT)) | Km (L404K) [µM] | Km (R331P) [µM] | Km (R331K) [µM] | Km [3] [µM] | Km (L404E) [µM] | Km (E123G, R331K) [µM] | Km [4] [µM] | Km (E123G, R331K, L404H [5]) [µM] | Km (L404H) [µM]
1 | O=C(O)[C@H](O)COP(=O)(O)O [3-PGA, 3-phosphoglycerate (3-phosphoglyceric acid)] | 0.11 ± 0.017 + | 0.090 ± 0.023 | 0.077 ± 0.0077 | 0.059 ± 0.11 | 0.26 ± 0.061 |  |  |  |  |  |  |  |  | 
2 | Nc1ncnc2c1ncn2[C@@H]1O[C@H](COP(=O)(O)OP(=O)(O)OP(=O)(O)O)[C@@H](O)[C@H]1O [ATP, adenosine 5'-triphosphate] |  |  |  |  |  | 43 ± 9 | 97 ± 15 | 88 ± 13 | 91 ± 8 | 135 ± 47 | 80 ± 5 | 60 ± 7 | 67 ± 10 | 132 ± 22

Source: publication PMC6300691, “Enhancement of Heat Stability and Kinetic Parameters of the Maize Endosperm ADP-Glucose Pyrophosphorylase by Mutagenesis of Amino Acids in the Small Subunit With High B Factors” (Frontiers in Plant Science, 2018)
